Data published in patent US20060160775A1, “Combination therapy” (priority 2003, published 2006).

Legend:
[1] = test system: Human LoVo colorectal carcinoma tumour xenografts; assay: Human LoVo colorectal carcinoma tumour xenografts in nude mice; assay type: in vivo, athymic (nu/nu genotype) mouse; settings: for Number of tumour regressions evident at day 14: groups of nine; for Mean % Inhibition of tumour growth at day 14: vs vehicle control
Description: Human LoVo Colorectal Carcinoma Tumour Xenografts in Nude Mice
1×10^7 LoVo tumour cells in 0.1 ml of serum free Dulbecco's Modified Eagle's Medium (DMEM) were injected subcutaneously (s.c.) into the flank of each athymic (nu/nu genotype) mouse. Tumour volumes were assessed by bilateral Vernier caliper measurement and, taking length to be the longest diameter across the tumour and width the corresponding perpendicular, calculated using the formula (length×width)×the square root of (length×width)×(π/6). […] ZD6126 was dissolved in a solution of 0.05% sodium carbonate in physiological saline and administered by intraperitoneal injection at 0.1 ml/10 g body weight. […] Inhibition of tumour growth from the start of treatment was assessed on day 14 by comparison of the differences in tumor volume between control and treated groups. In addition, the number of tumour regressions following 14 days of treatment was ascertained (tumour regression being evident if the tumour volume at day 14 was smaller than the pre-treatment value on day 0).

tumour vasculature = settings: in vivo; cited from earlier work
tumour models = assay: Anti-tumour activity in a range of models; assay type: in vivo; settings: once-daily oral administration
[2] = ZD6126 alone, 100 mg/kg/day, days 0-2, i.p.
[3] = AZD2171 alone, 3 mg/kg/day, days 0-14, p.o.

| SMILES | Number of tumour regressions evident at day 14 [1, 2] | Mean % Inhibition of tumour growth at day 14 [1, 2] | Effect on tumour vasculature (tumour vasculature) | Number of tumour regressions evident at day 14 [1, 3] | Mean % Inhibition of tumour growth at day 14 [1, 3] | Anti-tumour activity (tumour models) |
| --- | --- | --- | --- | --- | --- | --- |
| COc1cc2c(c(OC)c1OC)-c1ccc(OP(=O)(O)O)cc1[C@@H](NC(C)=O)CC2 [ZD6126, (5S)-5-(acetylamino)-9,10,11-trimethoxy-6,7-dihydro-5H-dibenzo[a,c]cyclohepten-3-yl dihydrogen phosphate] | 1/9 | 65% (P < 0.001) | selectively disrupts tumour vasculature leading to vessel occlusion and extensive tumour necrosis | – | – | – |
| COc1cc2c(Oc3ccc4[nH]c(C)cc4c3F)ncnc2cc1OCCCN1CCCC1 [AZD2171, 4-(4-fluoro-2-methylindol-5-yloxy)-6-methoxy-7-(3-(pyrrolidin-1-yl)propoxy)quinazoline] | – | – | – | 0/9 | 62% (P < 0.001) | broad-spectrum anti-tumour activity |
